According to US12643880B2, “Heterobifunctional molecules as TEAD inhibitors” (Genentech, Inc., priority 2020, dated 2026):
Counter-ions that a name gives are not always drawn.

Columns and labels:
Type in all cases: binding
Conditions in all cases: His-tagged TEAD protein, biotinylated lipid pocket probe
[1] = target: TEAD4 (Homo sapiens, UniProt Q15561); assay: TEAD lipid pocket TR-FRET (Lipid HTRF) competition assay, TEAD4
Method: (§1) His-tagged TEAD proteins are pre-incubated with TEAD project compounds for 30 minutes at room temperature. Biotinylated lipid pocket probes are then added to the TEAD/Compound mixture and incubated for 60 minutes at room temperature. The lipid pocket probe competes with the test compound for the TEAD lipid pocket until equilibrium is reached. After 60 minutes, Europium labelled anti-His (Perkin Elmer #ADO 110) and XL665 labelled streptavidin (CIS Bio 610SAXAC) are added to the TEAD/test compound/lipid pocket mixture and incubated for 30 minutes. TR-FRET values are then measured using an EnVision multi-label plate reader (Perkin Elmer Cat #2104-1A.) If the lipid pocket probe binds to TEAD as expected, a TR-FRET signal results from the proximity of Tani-His Eu and XL665. If a TEAD lipid pocket binder such as binds and displaces the lipid pocket probe, the disruption of the TEAD:probe interaction results in a decrease in TR-FRET signal. The potency of compounds as TEAD lipid pocket binders is determined by IC50 value generated using a non-linear 4 parameter curve fit. This assay format enables more sensitive determinations of lipid pocket affinity than the aforementioned TEAD lipid pocket FP assay due to the decreased concentration of TEAD protein required for the TR-FRET assay format.

[2] = target: TEAD3 (Homo sapiens, UniProt Q99594); assay: TEAD lipid pocket TR-FRET (Lipid HTRF) competition assay, TEAD3
Method: as §1

[3] = target: TEAD1 (Homo sapiens, UniProt P28347); assay: TEAD lipid pocket TR-FRET (Lipid HTRF) competition assay, TEAD1
Method: as §1

[4] = target: TEAD2 (Homo sapiens, UniProt Q15562); assay: TEAD lipid pocket TR-FRET (Lipid HTRF) competition assay, TEAD2
Method: as §1

Chain of TEAD1 (P28347 whole entry, species assumed): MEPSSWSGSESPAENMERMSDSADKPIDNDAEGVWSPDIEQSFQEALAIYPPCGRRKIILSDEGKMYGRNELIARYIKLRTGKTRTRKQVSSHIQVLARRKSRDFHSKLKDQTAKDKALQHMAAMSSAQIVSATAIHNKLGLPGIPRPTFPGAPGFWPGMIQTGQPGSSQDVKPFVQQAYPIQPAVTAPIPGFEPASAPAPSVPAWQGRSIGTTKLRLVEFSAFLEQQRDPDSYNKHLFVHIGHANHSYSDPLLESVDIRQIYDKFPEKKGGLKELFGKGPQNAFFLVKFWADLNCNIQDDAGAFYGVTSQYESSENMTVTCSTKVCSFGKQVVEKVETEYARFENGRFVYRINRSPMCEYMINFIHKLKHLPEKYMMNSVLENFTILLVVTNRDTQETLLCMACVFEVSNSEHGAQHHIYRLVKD
Chain of TEAD2 (Q15562 whole entry, species assumed): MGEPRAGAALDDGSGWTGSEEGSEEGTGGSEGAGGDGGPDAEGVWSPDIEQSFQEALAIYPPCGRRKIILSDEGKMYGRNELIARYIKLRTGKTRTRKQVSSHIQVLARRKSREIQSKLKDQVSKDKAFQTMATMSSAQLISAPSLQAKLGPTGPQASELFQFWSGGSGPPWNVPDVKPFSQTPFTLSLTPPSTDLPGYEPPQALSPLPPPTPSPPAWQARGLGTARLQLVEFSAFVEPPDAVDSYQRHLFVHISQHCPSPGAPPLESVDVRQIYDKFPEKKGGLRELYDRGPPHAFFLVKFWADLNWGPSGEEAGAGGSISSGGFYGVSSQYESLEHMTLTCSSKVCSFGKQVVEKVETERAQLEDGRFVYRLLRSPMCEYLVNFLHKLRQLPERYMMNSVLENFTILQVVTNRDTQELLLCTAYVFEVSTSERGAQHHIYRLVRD
Chain of TEAD4 (Q15561 whole entry, species assumed): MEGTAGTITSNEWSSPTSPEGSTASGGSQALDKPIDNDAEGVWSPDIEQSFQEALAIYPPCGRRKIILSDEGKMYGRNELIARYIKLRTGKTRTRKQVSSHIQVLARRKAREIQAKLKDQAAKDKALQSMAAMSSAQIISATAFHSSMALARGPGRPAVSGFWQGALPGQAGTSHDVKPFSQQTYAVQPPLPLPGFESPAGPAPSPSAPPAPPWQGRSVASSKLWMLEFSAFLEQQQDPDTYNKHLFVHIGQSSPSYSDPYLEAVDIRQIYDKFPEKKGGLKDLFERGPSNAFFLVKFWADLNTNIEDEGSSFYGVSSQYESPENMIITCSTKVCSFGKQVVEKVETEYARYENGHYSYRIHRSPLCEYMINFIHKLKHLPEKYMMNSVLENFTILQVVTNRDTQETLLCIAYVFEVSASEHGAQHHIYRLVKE
Chain of TEAD3 (Q99594 whole entry, species assumed): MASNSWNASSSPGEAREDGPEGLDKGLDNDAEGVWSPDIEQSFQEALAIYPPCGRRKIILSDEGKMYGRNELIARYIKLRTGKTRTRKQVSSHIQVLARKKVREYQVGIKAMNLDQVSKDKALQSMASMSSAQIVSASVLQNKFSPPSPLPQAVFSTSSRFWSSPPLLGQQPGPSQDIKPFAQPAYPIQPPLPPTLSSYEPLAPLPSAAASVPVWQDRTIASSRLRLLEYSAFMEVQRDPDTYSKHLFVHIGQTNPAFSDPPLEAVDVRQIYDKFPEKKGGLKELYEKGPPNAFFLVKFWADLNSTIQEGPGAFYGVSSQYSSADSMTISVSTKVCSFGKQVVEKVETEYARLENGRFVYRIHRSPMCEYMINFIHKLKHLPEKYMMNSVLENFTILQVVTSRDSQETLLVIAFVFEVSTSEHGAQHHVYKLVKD

| Structure (SMILES) | IC50 [1] | IC50 [2] | IC50 [3] | IC50 [4] |
| --- | --- | --- | --- | --- |
| COc1cnc(C(=O)NCc2cccc(CC(=O)NCCCCCCCCC(=O)N[C@H](C(=O)N3C[C@H](O)C[C@H]3C(=O)NCc3ccc(-c4scnc4C)cc3)C(C)(C)C)c2)cc1/C=C/[C@H]1CC[C@H](C(F)(F)F)CC1 [Compound 13, N-(3-(2-((9-(((S)-1-((2S,4R)-4-Hydroxy-2-((4-(4-methylthiazol-5-yl)benzyl)carbamoyl)pyrrolidin-1-yl)-3,3-dimethyl-1-oxobutan-2-yl)amino)-9-oxononyl)amino)-2-oxoethyl)benzyl)-5-methoxy-4-((E)-2-(trans-4-(trifluoromethyl)cyclohexyl)vinyl)picolinamide] | 220 nM | 4030 nM | 980 nM | 460 nM |
| COc1cnc(C(=O)NCc2cccc(CC(=O)NCCOCCOCC(=O)N[C@H](C(=O)N3C[C@H](O)C[C@H]3C(=O)NCc3ccc(-c4scnc4C)cc3)C(C)(C)C)c2)cc1/C=C/[C@H]1CC[C@H](C(F)(F)F)CC1 [Compound 14, N-(3-((S)-13-((2S,4R)-4-Hydroxy-2-((4-(4-methylthiazol-5-yl)benzyl)carbamoyl)pyrrolidine-1-carbonyl)-14,14-dimethyl-2,11-dioxo-6,9-dioxa-3,12-diazapentadecyl)benzyl)-5-methoxy-4-((E)-2-(trans-4-(trifluoromethyl)cyclohexyl)vinyl)picolinamide] | 170 nM | 3830 nM | 720 nM | 410 nM |
| COc1cnc(C(=O)NCc2cccc(CC(=O)NCCOCCOCCOCC(=O)N[C@H](C(=O)N3C[C@H](O)C[C@H]3C(=O)NCc3ccc(-c4scnc4C)cc3)C(C)(C)C)c2)cc1/C=C/[C@H]1CC[C@H](C(F)(F)F)CC1 [Compound 15, N-(3-((S)-16-((2S,4R)-4-Hydroxy-2-((4-(4-methylthiazol-5-yl)benzyl)carbamoyl)pyrrolidine-1-carbonyl)-17,17-dimethyl-2,14-dioxo-6,9,12-trioxa-3,15-diazaoctadecyl)benzyl)-5-methoxy-4-((E)-2-(trans-4-(trifluoromethyl)cyclohexyl)vinyl)picolinamide] | 170 nM | 3630 nM | 600 nM | 380 nM |
| COc1cnc(C(=O)NCc2cccc(CC(=O)NCCOCCOCCOCCOCC(=O)N[C@H](C(=O)N3C[C@H](O)C[C@H]3C(=O)NCc3ccc(-c4scnc4C)cc3)C(C)(C)C)c2)cc1/C=C/[C@H]1CC[C@H](C(F)(F)F)CC1 [Compound 16, N-(3-((S)-19-((2S,4R)-4-Hydroxy-2-((4-(4-methylthiazol-5-yl)benzyl)carbamoyl)pyrrolidine-1-carbonyl)-20,20-dimethyl-2,17-dioxo-6,9,12,15-tetraoxa-3,18-diazahenicosyl)benzyl)-5-methoxy-4-((E)-2-(trans-4-(trifluoromethyl)cyclohexyl)vinyl)picolinamide] | 60 nM | 2570 nM | 350 nM | 160 nM |
| COc1cnc(C(=O)NCc2cccc(CC(=O)NCCOCCOCCOCCOCCOCC(=O)N[C@H](C(=O)N3C[C@H](O)C[C@H]3C(=O)NCc3ccc(-c4scnc4C)cc3)C(C)(C)C)c2)cc1/C=C/[C@H]1CC[C@H](C(F)(F)F)CC1 [Compound 17, N-(3-((S)-22-((2S,4R)-4-Hydroxy-2-((4-(4-methylthiazol-5-yl)benzyl)carbamoyl)pyrrolidine-1-carbonyl)-23,23-dimethyl-2,20-dioxo-6,9,12,15,18-pentaoxa-3,21-diazatetracosyl)benzyl)-5-methoxy-4-((E)-2-(trans-4-(trifluoromethyl)cyclohexyl)vinyl)picolinamide] | 40 nM | 1500 nM | 280 nM | 90 nM |
| CN[C@@H](C)C(=O)N[C@H](C(=O)N1CCC[C@H]1C(=O)Nc1sc(NC(=O)COCCOCCOCCOCCN(C)C(=O)Cc2cccc(CNC(=O)c3cc(/C=C/[C@H]4CC[C@H](C(F)(F)F)CC4)c(OC)cn3)c2)nc1-c1ccccc1)C1CCCCC1 [Compound 18, N-(3-(17-((5-((S)-1-((S)-2-Cyclohexyl-2-((S)-2-(methylamino)propanamido)acetyl)pyrrolidine-2-carboxamido)-4-phenylthiazol-2-yl)amino)-3-methyl-2,17-dioxo-6,9,12,15-tetraoxa-3-azaheptadecyl)benzyl)-5-methoxy-4-((E)-2-(trans-4-(trifluoromethyl)cyclohexyl)vinyl)picolinamide] | 140 nM | 4800 nM | 600 nM | 490 nM |
| CN[C@@H](C)C(=O)N[C@H](C(=O)N1CCC[C@H]1C(=O)Nc1sc(NC(=O)COCCOCCOCCOCCOCCN(C)C(=O)Cc2cccc(CNC(=O)c3cc(/C=C/[C@H]4CC[C@H](C(F)(F)F)CC4)c(OC)cn3)c2)nc1-c1ccccc1)C1CCCCC1 [Compound 19, N-(3-(20-((5-((S)-1-((S)-2-Cyclohexyl-2-((S)-2-(methylamino)propanamido)acetyl)pyrrolidine-2-carboxamido)-4-phenylthiazol-2-yl)amino)-3-methyl-2,20-dioxo-6,9,12,15,18-pentaoxa-3-azaicosyl)benzyl)-5-methoxy-4-((E)-2-(trans-4-(trifluoromethyl)cyclohexyl)vinyl)picolinamide] | 140 nM | 4100 nM | 540 nM | 360 nM |
| CN[C@@H](C)C(=O)N[C@H](C(=O)N1CCC[C@H]1C(=O)Nc1sc(NC(=O)COCCOCCOCCOCCOCCOCCN(C)C(=O)Cc2cccc(CNC(=O)c3cc(/C=C/[C@H]4CC[C@H](C(F)(F)F)CC4)c(OC)cn3)c2)nc1-c1ccccc1)C1CCCCC1 [Compound 20, N-(3-(23-((5-((S)-1-((S)-2-Cyclohexyl-2-((S)-2-(methylamino)propanamido)acetyl)pyrrolidine-2-carboxamido)-4-phenylthiazol-2-yl)amino)-3-methyl-2,23-dioxo-6,9,12,15,18,21-hexaoxa-3-azatricosyl)benzyl)-5-methoxy-4-((E)-2-(trans-4-(trifluoromethyl)cyclohexyl)vinyl)picolinamide formate] | 130 nM | 4300 nM | 510 nM | 340 nM |
| CN[C@@H](C)C(=O)N[C@H](C(=O)N1CCC[C@H]1C(=O)Nc1sc(NC(=O)CCCN(C)C(=O)Cc2cccc(CNC(=O)c3cc(/C=C/[C@H]4CC[C@H](C(F)(F)F)CC4)c(OC)cn3)c2)nc1-c1ccccc1)C1CCCCC1 [Compound 21, N-(3-(2-((4-((5-((S)-1-((S)-2-Cyclohexyl-2-((S)-2-(methylamino)propanamido)acetyl)pyrrolidine-2-carboxamido)-4-phenylthiazol-2-yl)amino)-4-oxobutyl)(methyl)amino)-2-oxoethyl)benzyl)-5-methoxy-4-((E)-2-(trans-4-(trifluoromethyl)cyclohexyl)vinyl)picolinamide] | 430 nM | 6200 nM | 1300 nM | 1000 nM |
